Where two headings read alike, the source gives them in different places.
Target: T1, human B-Raf (Homo sapiens, UniProt P15056)
T1 construct: Flag; GST; made in house; host or cells: Sf9 insect cells (B-Raf); E. coli (MEK1-GST)
Assay: B-Raf Kinase to MEK1 ELISA
Format: biochemical
Conditions: for IC50: median, cpd concentrations from 10 μM to 30 nM in half log dilutions, read-out: Median IC50; for inhibition at 10 µM: read-out: % Inhib./10 uM
Text: TITLE: B-Raf Kinase to MEK1 ELISA
PURPOSE: To discover B-Raf Kinase inhibitors that can inhibit growth of tumor cells which contain oncogenic forms of Receptor Tyrosine Kinases or K-Ras, or B-Raf kinase.
Reagents: Flag/GST-tagged recombinant human B-Raf produced in Sf9 insect cells, human non-active Mek-1-GST (recombinant protein produced in E. coli); and a phospho-MEK1 specific poly-clonal Ab from Cell Signaling Technology (cat. #9121).
B-Raf1 Kinase Assay Procedure:
B-Raf-1 is used to phosphorylate GST-MEK1. MEK1 phosphorylation is measured by a phospho-specific antibody (from Cell Signaling Technology, cat. #9121) that detects phosphorylation of two serine residues at positions 217 and 221 on MEK1.
B-Raf Assay Stock Solutions:
1. Assay Dilution Buffer (ADB): 20 mM MOPS, pH 7.2, 25 mM β-glycerol phosphate, 5 mM EGTA, 1 mM sodium orthovanadate, 1 mM dithiothreitol.
2. Magnesium/ATP Cocktail: 200 μM cold ATP and 40 mM magnesium chloride in ADB.
3. Active Kinase: Active B-Raf: used at ˜20 ng per assay point.
4. Non-active GST-MEK1: Use at 100 nM (50 nM final).
6. Anti-GST Ab (Pharmacia)
7. Anti-rabbit Ab/Europium conjugate (Wallac)
1. Add 25 μl of ADB containing B-Raf and Mek per assay (i.e. per well of a 96 well plate)
2. Add 25 μl of 0.2 mM ATP and 40 mM magnesium chloride in ADB.
3. Incubate for 60 minutes at RT in a shaking incubator.
4. Transfer this mixture to an anti-GST Ab coated 96 well plate (Nunc Immunosorb plates coated o/n with a-GST.
5. Incubate for 60 minutes at 30° C. in a shaking incubator
6. Wash 3× with TBST, add Anti-Phospho MEK1 (1:1000)
7. Incubate for 60 minutes at 30° C. in a shaking incubator
8. Wash 3× with TBST, add Anti-rabbit Ab/Europium conjugate (Wallac) (1:500)
9. Incubate for 60 minutes at 30° C. in a shaking incubator
10. Add 100 ul of Wallac Delfia Enhancement Solution and shake for 10 minutes.
11. Read plates in Wallac Victor model Plate Reader.
12. Collect data analyze in Excel for single point and IC50 determinations.
Typically Raf-1 assay is run at cpd concentrations from 10 μM to 30 nM in half log dilutions. (% inhibition is determined for each cpd concentration)

T1 sequence (P15056 whole entry): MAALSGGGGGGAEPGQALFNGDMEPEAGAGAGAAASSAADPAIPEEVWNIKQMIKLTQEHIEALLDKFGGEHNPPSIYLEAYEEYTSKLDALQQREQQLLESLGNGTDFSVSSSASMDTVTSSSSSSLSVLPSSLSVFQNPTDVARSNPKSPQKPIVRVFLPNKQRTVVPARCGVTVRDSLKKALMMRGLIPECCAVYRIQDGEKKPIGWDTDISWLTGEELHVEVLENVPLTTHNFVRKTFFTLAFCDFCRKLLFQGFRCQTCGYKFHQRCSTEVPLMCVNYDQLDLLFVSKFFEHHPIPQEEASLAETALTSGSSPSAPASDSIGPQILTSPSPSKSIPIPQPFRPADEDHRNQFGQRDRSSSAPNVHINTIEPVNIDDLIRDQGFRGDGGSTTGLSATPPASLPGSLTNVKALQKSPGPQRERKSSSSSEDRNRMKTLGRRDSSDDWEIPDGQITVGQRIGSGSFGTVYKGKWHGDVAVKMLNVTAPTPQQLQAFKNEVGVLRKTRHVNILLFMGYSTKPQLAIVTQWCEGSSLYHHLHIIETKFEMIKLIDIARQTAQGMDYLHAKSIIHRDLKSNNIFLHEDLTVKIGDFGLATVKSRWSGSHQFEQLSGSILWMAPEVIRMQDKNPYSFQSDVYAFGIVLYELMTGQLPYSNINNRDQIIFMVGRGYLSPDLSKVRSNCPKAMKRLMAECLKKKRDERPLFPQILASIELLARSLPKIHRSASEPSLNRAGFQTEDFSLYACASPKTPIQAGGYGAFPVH

Row | Compound | IC50 | inhibition at 10 µM | inhibition at 10 µM (single point assay, 10 uM)
1 | CN1CCCC1CCNC(=O)c1cnn2c(-c3cccc(NC(=O)c4cccc(C(F)(F)F)c4)c3)ccnc12 (stereo not drawn) [Example 54, N-[2-(1-methylpyrrolidin-2-yl)ethyl]-7-(3-{[3-(trifluoromethyl)benzoyl]amino}phenyl)pyrazolo[1,5-a]pyrimidine-3-carboxamide] | > 10 µM | 32% | –
2 | O=C(Nc1cccc(-c2ccnc3c(C(=O)NCCCn4ccnc4)cnn23)c1)c1cccc(C(F)(F)F)c1 [Example 55, N-[3-(1H-imidazol-1-yl)propyl]-7-(3-{[3-(trifluoromethyl)benzoyl]amino}phenyl)pyrazolo[1,5-a]pyrimidine-3-carboxamide] | 2.1 µM | 70% | –
3 | COCCCNC(=O)c1cnn2c(-c3cccc(NC(=O)c4cccc(C(F)(F)F)c4)c3)ccnc12 [Example 56, N-(3-methoxypropyl)-7-(3-{[3-(trifluoromethyl)benzoyl]amino}phenyl)pyrazolo[1,5-a]pyrimidine-3-carboxamide] | 1 µM | 60% | –
4 | O=C(Nc1cccc(-c2ccnc3c(C(=O)NCc4ccccc4)cnn23)c1)c1cccc(C(F)(F)F)c1 [Example 57, N-benzyl-7-(3-{[3-(trifluoromethyl)benzoyl]amino}phenyl)pyrazolo[1,5-a]pyrimidine-3-carboxamide] | 1.64 µM | 51% | –
5 | CCOC(=O)c1c(C)nn2c(-c3cccc(NC(=O)c4cccc(C(F)(F)F)c4)c3)ccnc12 [Example 58, Ethyl 2-methyl-7-(3-{[3-(trifluoromethyl)benzoyl]amino}phenyl)pyrazolo[1,5-a]pyrimidine-3-carboxylate] | > 10 µM | 4% | –
6 | O=C(Nc1cccc(-c2ccnc3c(-c4ccccn4)cnn23)c1)c1cccc(C(F)(F)F)c1 [Example 59, N-[3-(3-pyridin-2-ylpyrazolo[1,5-a]pyrimidin-7-yl)phenyl]-3-(trifluoromethyl)benzamide] | > 10 µM | 37% | –
7 | O=C(Nc1cccc(-c2ccnc3c(-c4nn[nH]n4)cnn23)c1)c1cccc(C(F)(F)F)c1 [Example 60, N-{3-[3-(2H-tetrazol-5-yl)pyrazolo[1,5-a]pyrimidin-7-yl]phenyl}-3-(trifluoromethyl)benzamide] | > 10 µM | 1% | –
8 | NC(=O)c1cnn2c(-c3cccc(NC(=O)c4cccc(C(F)(F)F)c4)c3)ccnc12 [Example 61, 7-(3-{[3-(trifluoromethyl)benzoyl]amino}phenyl)pyrazolo[1,5-a]pyrimidine-3-carboxamide] | > 10 µM | 16% | –
9 | N#Cc1c(N2CCNCC2)nn2c(-c3cccc(NC(=O)c4cccc(C(F)(F)F)c4)c3)ccnc12 [Example 62, N-[3-(3-cyano-2-piperazin-1-ylpyrazolo[1,5-a]pyrimidin-7-yl)phenyl]-3-(trifluoromethyl)benzamide] | – | 54% | –
10 | N#Cc1cnn2c(-c3cccc(NC(=O)c4cccc(C(F)(F)F)c4)c3)ccnc12 [Example 63, N-[3-(3-cyanopyrazolo[1,5-a]pyrimidin-7-yl)phenyl]-3-(trifluoromethyl)benzamide] | > 10 µM | – | 14%
11 | CCOC(=O)c1c(C)nn2c(-c3cccc(NC(=O)c4ccc(C)c(C(F)(F)F)c4)c3)ccnc12 [Example 64, ethyl 2-methyl-7-(3-{[4-methyl-3-(trifluoromethyl)benzoyl]amino}phenyl)pyrazolo[1,5-a]pyrimidine-3-carboxylate] | > 10 µM | 4% | –
12 | Cc1ccc(C(=O)Nc2cccc(-c3ccnc4c(-c5ccccn5)cnn34)c2)cc1C(F)(F)F [Example 65, 4-methyl-N-[3-(3-pyridin-2-ylpyrazolo[1,5-a]pyrimidin-7-yl)phenyl]-3-(trifluoromethyl)benzamide] | > 10 µM | 30% | –
13 | Cc1ccc(C(=O)Nc2cccc(-c3ccnc4c(-c5nn[nH]n5)cnn34)c2)cc1C(F)(F)F [Example 66, 4-methyl-N-{3-[3-(2H-tetrazol-5-yl)pyrazolo[1,5-a]pyrimidin-7-yl]phenyl}-3-(trifluoromethyl)benzamide] | > 10 µM | 18% | –
14 | Cc1ccc(C(=O)Nc2cccc(-c3ccnc4c(C(N)=O)cnn34)c2)cc1C(F)(F)F [Example 67, 7-(3-{[4-methyl-3-(trifluoromethyl)benzoyl]amino}phenyl)pyrazolo[1,5-a]pyrimidine-3-carboxamide] | > 10 µM | 6% | –
15 | Cc1ccc(C(=O)Nc2cccc(-c3ccnc4c(C#N)c(N5CCNCC5)nn34)c2)cc1C(F)(F)F [Example 68, N-[3-(3-cyano-2-piperazin-1-ylpyrazolo[1,5-a]pyrimidin-7-yl)phenyl]-4-methyl-3-(trifluoromethyl)benzamide] | 8.4 µM | 45% | –
16 | Cc1ccc(C(=O)Nc2cccc(-c3ccnc4c(C#N)cnn34)c2)cc1C(F)(F)F [Example 69, N-[3-(3-cyanopyrazolo[1,5-a]pyrimidin-7-yl)phenyl]-4-methyl-3-(trifluoromethyl)benzamide] | > 10 µM | 13% | –
17 | CCOC(=O)c1cnn2c(-c3cccc(NC(=O)c4cccc(Cl)c4)c3)ccnc12 [Example 70, Ethyl 7-{3-[(3-chlorobenzoyl)amino]phenyl}pyrazolo[1,5-a]pyrimidine-3-carboxylate] | > 10 µM | 0% | –
18 | CCOC(=O)c1cnn2c(-c3cccc(NC(=O)c4ccc(Cl)c(Cl)c4)c3)ccnc12 [Example 71, ethyl 7-{3-[(3,4-dichlorobenzoyl)amino]phenyl}pyrazolo[1,5-a]pyrimidine-3-carboxylate] | > 10 µM | 0% | –
19 | CCOC(=O)c1cnn2c(-c3cccc(NC(=O)c4cc(Cl)cc(Cl)c4)c3)ccnc12 [Example 72, ethyl 7-{3-[(3,5-dichlorobenzoyl)amino]phenyl}pyrazolo[1,5-a]pyrimidine-3-carboxylate] | > 10 µM | 4% | –
20 | CCOC(=O)c1cnn2c(-c3cccc(NC(=O)c4ccc(OC)c(Cl)c4)c3)ccnc12 [Example 73, ethyl 7-{3-[(3-chloro-4-methoxybenzoyl)amino]phenyl}pyrazolo[1,5-a]pyrimidine-3-carboxylate] | > 10 µM | 5% | –
21 | CCOC(=O)c1cnn2c(-c3cccc(NC(=O)c4cc(Cl)ccc4C)c3)ccnc12 [Example 74, ethyl 7-{3-[(5-chloro-2-methylbenzoyl)amino]phenyl}pyrazolo[1,5-a]pyrimidine-3-carboxylate] | > 10 µM | 10% | –
22 | CCOC(=O)c1cnn2c(-c3cccc(NC(=O)c4cc(F)cc(C(F)(F)F)c4)c3)ccnc12 [Example 75, ethyl 7-(3-{[3-fluoro-5-(trifluoromethyl)benzoyl]amino}phenyl)pyrazolo[1,5-a]pyrimidine-3-carboxylate] | 6.6 µM | 58% | –
23 | CCOC(=O)c1cnn2c(-c3cccc(NC(=O)c4ccc(F)cc4C(F)(F)F)c3)ccnc12 [Example 76, ethyl 7-(3-{[4-fluoro-2-(trifluoromethyl)benzoyl]amino}phenyl)pyrazolo[1,5-a]pyrimidine-3-carboxylate] | > 10 µM | 0% | –

Source: patent publication US20070219186A1, “Pyrazolo[1,5-A]pyrimidine derivatives and methods of use thereof” (priority 2006, published 2007)
